In patent US7514404B2, “PNA-neamine conjugates and methods for producing and using the same” (University of Medicine & Dentistry of New Jersey, priority 2004, dated 2009):

Tested on: pseudotyped HIV-1 virions carrying the firefly luciferase reporter gene
Assay: Luciferase activity in CEM cells infected with pseudotyped HIV-1 virions
Type: cell-based
Details: concentrations greater than 5 μM in the culture medium
Method: The ability of a TAR-specific PNA-neamine conjugate to block HIV-1 production when supplemented in the culture medium was also examined. Lymphocyte CEM cells were infected with pseudotyped HIV-1 virions carrying the firefly luciferase reporter gene. The infected cells were incubated with varying concentration of PNATAR-neamine conjugate 60 or naked PNATAR during 48 hours at 37° C. and lysed to measure firefly luciferase activity. Anti-TAR PNA-transportan conjugate (PNA-membrane-permeating peptide conjugate) known to inhibit HIV-1 replication (Kaushik, et al. (2002) supra) was used as a positive control. […] Supplementation of naked PNA of SEQ ID NO:1 in the culture medium had no influence on luciferase gene expression.
Isolation of HIV-1 Virions. The pseudotyped HIV-1 virions were isolated from the culture supernatant of 293T cells transfected with pHIV-1JR-CSF-Lucenv (-) and pVSV-G clones. The culture supernatant (500 mL) was filtered through 0.45 μm pore size membrane and centrifuged at 70,000 g for 45 minutes. […] HIV-1 virions were quantified by determining the RNA copy number in the sample using NUCLISENS® HIV-1-QT Amplication Kit (Organon Teknika, Durham, N.C.). […] The virion number estimated from the RNA copy number was in agreement with the number determined by p24 quantification (1 pg p24 per 12500 virions). […]

## NC[C@H]1O[C@H](O[C@H]2[C@H](O)[C@@H](O)[C@H](N)C[C@@H]2N)[C@H](N)[C@@H](O)[C@@H]1O [neamine core, neamine]
  inhibition of HIV-1 replication: did not inhibit
